Biological target: PARP7 (Homo sapiens (Human), UniProt Q7Z3E1)
Experiment: Enzymatic assay for inhibition of PARP7: TR-FRET displacement of biotinylated Probe A from the TIPARP active site
Format: binding
Details: Table A-1
Outline: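 TR-FRET, ex 320 nm / em 615 and 665 nm. Signal ratio reflects complex formation.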

Sequence of PARP7 (Q7Z3E1 whole entry): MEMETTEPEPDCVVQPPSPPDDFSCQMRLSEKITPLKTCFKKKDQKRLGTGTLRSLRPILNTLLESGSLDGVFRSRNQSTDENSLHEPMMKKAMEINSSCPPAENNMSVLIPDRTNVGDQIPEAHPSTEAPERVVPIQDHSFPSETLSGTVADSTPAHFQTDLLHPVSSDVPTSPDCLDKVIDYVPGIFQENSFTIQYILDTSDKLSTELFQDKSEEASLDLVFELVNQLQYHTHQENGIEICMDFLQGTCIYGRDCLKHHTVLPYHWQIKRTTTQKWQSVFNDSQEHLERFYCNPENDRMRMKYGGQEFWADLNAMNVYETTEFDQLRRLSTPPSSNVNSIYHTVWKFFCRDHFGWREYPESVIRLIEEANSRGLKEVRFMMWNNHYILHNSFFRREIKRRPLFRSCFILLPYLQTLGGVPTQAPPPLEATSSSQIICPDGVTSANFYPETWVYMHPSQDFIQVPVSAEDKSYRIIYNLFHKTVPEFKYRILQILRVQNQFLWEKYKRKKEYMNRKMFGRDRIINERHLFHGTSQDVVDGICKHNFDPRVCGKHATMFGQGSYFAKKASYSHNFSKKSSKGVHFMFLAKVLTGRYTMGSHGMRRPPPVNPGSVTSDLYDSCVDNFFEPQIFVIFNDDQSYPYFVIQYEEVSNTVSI

Row | SMILES | IC50
1 | C[C@@H](COCCC(=O)N1CCC(c2ccc(C#N)cn2)CC1)Oc1cn[nH]c(=O)c1C(F)(F)F [Example 658, (S)-6-(1-(3-(2-((6-Oxo-5-(trifluoromethyl)-1,6-dihydropyridazin-4-yl)oxy)propoxy)propanoyl)piperidin-4-yl)nicotinonitrile] | < 0.1 µM
2 | C[C@@H](COCCC(=O)N1CCN(c2cnc(C(F)(F)F)cn2)CC1)Oc1cn[nH]c(=O)c1C(F)(F)F [Example 662, (S)-5-((1-(3-Oxo-3-(4-(5-(trifluoromethyl)pyrazin-2-yl)piperazin-1-yl)propoxy)propan-2-yl)oxy)-4-(trifluoromethyl)pyridazin-3(2H)-one] | < 0.1 µM
3 | N#Cc1ccc(N2CCN(C(=O)CCOC[C@H](CN3CCOCC3)Oc3cn[nH]c(=O)c3C(F)(F)F)CC2)nc1 [Example 663, (S)-6-(4-(3-(3-Morpholino-2-((6-oxo-5-(trifluoromethyl)-1,6-dihydropyridazin-4-yl)oxy)propoxy)propanoyl)piperazin-1-yl)nicotinonitrile] | < 0.1 µM
4 | C[C@@H](COCCC(=O)N1CCC(c2ncc(C(F)(F)F)cn2)CC1)Nc1cn[nH]c(=O)c1C(F)(F)F [Example 664, (S)-5-((1-(3-Oxo-3-(4-(5-(trifluoromethyl)pyrimidin-2-yl)piperidin-1-yl)propoxy)propan-2-yl)amino)-4-(trifluoromethyl)pyridazin-3(2H)-one] | < 0.1 µM
5 | Cc1ccc(N2CCN(C(=O)CCOC[C@H](C)Nc3cn[nH]c(=O)c3C(F)(F)F)CC2)nc1 [Example 671, (S)-5-((1-(3-(4-(5-Methylpyridin-2-yl)piperazin-1-yl)-3-oxopropoxy)propan-2-yl)amino)-4-(trifluoromethyl)pyridazin-3(2H)-one] | < 0.1 µM
6 | C[C@@H](COCCC(=O)N1CCN(c2ccc(CN)cn2)CC1)Oc1cn[nH]c(=O)c1C(F)(F)F [Example 673, (S)-5-((1-(3-(4-(5-(Aminomethyl)pyridin-2-yl)piperazin-1-yl)-3-oxopropoxy)propan-2-yl)oxy)-4-(trifluoromethyl)pyridazin-3(2H)-one] | < 0.1 µM
7 | C[C@@H](COCCC(=O)N1CCN(c2cc(C(F)(F)F)ccn2)CC1)Nc1cn[nH]c(=O)c1C(F)(F)F [Example 674, (S)-5-((1-(3-Oxo-3-(4-(4-(trifluoromethyl)pyridin-2-yl)piperazin-1-yl)propoxy)propan-2-yl)amino)-4-(trifluoromethyl)pyridazin-3(2H)-one] | < 0.1 µM
8 | C[C@@H](COCCC(=O)N1CCN(c2ccccn2)CC1)Nc1cn[nH]c(=O)c1C(F)(F)F [Example 675, (S)-5-((1-(3-Oxo-3-(4-(pyridin-2-yl)piperazin-1-yl)propoxy)propan-2-yl)amino)-4-(trifluoromethyl)pyridazin-3(2H)-one] | < 0.1 µM
9 | C[C@@H](COCCC(=O)N1CCN(c2ncccc2C#N)CC1)Nc1cn[nH]c(=O)c1C(F)(F)F [Example 676, (S)-2-(4-(3-(2-((6-Oxo-5-(trifluoromethyl)-1,6-dihydropyridazin-4-yl)amino)propoxy)propanoyl)piperazin-1-yl)nicotinonitrile] | < 0.1 µM
10 | C[C@@H](COCCC(=O)N1CCN(c2ncccc2C(F)(F)F)CC1)Nc1cn[nH]c(=O)c1C(F)(F)F [Example 677, (S)-5-((1-(3-Oxo-3-(4-(3-(trifluoromethyl)pyridin-2-yl)piperazin-1-yl)propoxy)propan-2-yl)amino)-4-(trifluoromethyl)pyridazin-3(2H)-one] | < 0.1 µM
11 | COC[C@@H](COCCC(=O)N1CCN(c2cnc(Cl)cn2)CC1)Nc1cn[nH]c(=O)c1C(F)(F)F [Example 678, (S)-5-((1-(3-(4-(5-Chloropyrazin-2-yl)piperazin-1-yl)-3-oxopropoxy)-3-methoxypropan-2-yl)amino)-4-(trifluoromethyl)pyridazin-3(2H)-one] | < 0.1 µM
12 | C[C@@H](COCCC(=O)N1CCN(c2ncc(C#N)s2)CC1)Nc1cn[nH]c(=O)c1C(F)(F)F [Example 680, (S)-2-(4-(3-(2-((6-Oxo-5-(trifluoromethyl)-1,6-dihydropyridazin-4-yl)amino)propoxy)propanoyl)piperazin-1-yl)thiazole-5-carbonitrile] | < 0.1 µM
13 | COC[C@@H](COCCC(=O)N1CCN(c2cnc(C(F)(F)F)cn2)CC1)Nc1cn[nH]c(=O)c1C(F)(F)F [Example 681, (S)-5-((1-Methoxy-3-(3-oxo-3-(4-(5-(trifluoromethyl)pyrazin-2-yl)piperazin-1-yl)propoxy)propan-2-yl)amino)-4-(trifluoromethyl)pyridazin-3(2H)-one] | < 0.1 µM
14 | Cc1ccc(N2CCN(C(=O)CCOC[C@H](C)Oc3cn[nH]c(=O)c3C(F)(F)F)CC2)nc1 [Example 682, (S)-5-((1-(3-(4-(5-Methylpyridin-2-yl)piperazin-1-yl)-3-oxopropoxy)propan-2-yl)oxy)-4-(trifluoromethyl)pyridazin-3(2H)-one] | < 0.1 µM
15 | C[C@@H](COCCC(=O)N1CCN(c2cnc(C#N)cn2)CC1)Nc1cn[nH]c(=O)c1C(F)(F)F [Example 683, (S)-5-(4-(3-(2-((6-Oxo-5-(trifluoromethyl)-1,6-dihydropyridazin-4-yl)amino)propoxy)propanoyl)piperazin-1-yl)pyrazine-2-carbonitrile] | < 0.1 µM
16 | C[C@@H](COCCC(=O)N1CCN(c2ccc(F)cn2)CC1)Nc1cn[nH]c(=O)c1C(F)(F)F [Example 684, (S)-5-((1-(3-(4-(5-Fluoropyridin-2-yl)piperazin-1-yl)-3-oxopropoxy)propan-2-yl)amino)-4-(trifluoromethyl)pyridazin-3(2H)-one] | < 0.1 µM
17 | C[C@@H](COCCC(=O)N1CCN(c2ccc(C(F)(F)F)nc2)CC1)Nc1cn[nH]c(=O)c1C(F)(F)F [Example 685, (S)-5-((1-(3-Oxo-3-(4-(6-(trifluoromethyl)pyridin-3-yl)piperazin-1-yl)propoxy)propan-2-yl)amino)-4-(trifluoromethyl)pyridazin-3(2H)-one] | < 0.1 µM
18 | C[C@@H](COCCC(=O)N1CC[C@@H]2[C@H]1CCN2c1ncc(C(F)(F)F)cn1)Nc1cn[nH]c(=O)c1C(F)(F)F [Example 688, 5-(((S)-1-(3-Oxo-3-((3aR,6aR)-4-(5-(trifluoromethyl)pyrimidin-2-yl)hexahydropyrrolo[3,2-b]pyrrol-1(2H)-yl)propoxy)propan-2-yl)amino)-4-(trifluoromethyl)pyridazin-3(2H)-one] | < 0.1 µM

More lines, now with the values ahead:

Row | IC50 | SMILES
19 | < 0.1 µM | CC[C@@H](COCCC(=O)N1CCN(c2ncc(C(F)(F)F)cn2)CC1)Oc1cn[nH]c(=O)c1Br [Example 657, (S)-4-Bromo-5-((1-(3-oxo-3-(4-(5-(trifluoromethyl)pyrimidin-2-yl)piperazin-1-yl)propoxy)butan-2-yl)oxy)pyridazin-3(2H)-one]
20 | < 0.1 µM | O=C(CCOC[C@H](CO)Nc1cn[nH]c(=O)c1Br)N1CCN(c2ncc(C(F)(F)F)cn2)CC1 [Example 660, (S)-4-Bromo-5-((1-hydroxy-3-(3-oxo-3-(4-(5-(trifluoromethyl)pyrimidin-2-yl)piperazin-1-yl)propoxy)propan-2-yl)amino)pyridazin-3(2H)-one]
21 | < 0.1 µM | O=C(CCOC[C@H](CO)Nc1cn[nH]c(=O)c1C(F)(F)F)N1CCN(c2ncc(Cl)cn2)CC1 [Example 665, (S)-5-((1-(3-(4-(5-Chloropyrimidin-2-yl)piperazin-1-yl)-3-oxopropoxy)-3-hydroxypropan-2-yl)amino)-4-(trifluoromethyl)pyridazin-3(2H)-one]
22 | < 0.1 µM | COC[C@@H](COCCC(=O)N1CCN(c2ncc(C(F)(F)F)cn2)CC1)Oc1cn[nH]c(=O)c1Br [Example 666, (S)-4-Bromo-5-((1-methoxy-3-(3-oxo-3-(4-(5-(trifluoromethyl)pyrimidin-2-yl)piperazin-1-yl)propoxy)propan-2-yl)oxy)pyridazin-3(2H)-one]
23 | ≥ 1 µM | COC[C@H](COCCC(=O)N1CCN(c2ncc(C(F)(F)F)cn2)CC1)Oc1cn[nH]c(=O)c1Br [Example 667, (R)-4-Bromo-5-((1-methoxy-3-(3-oxo-3-(4-(5-(trifluoromethyl)pyrimidin-2-yl)piperazin-1-yl)propoxy)propan-2-yl)oxy)pyridazin-3(2H)-one]
24 | < 0.1 µM | COC[C@@H](COCCC(=O)N1CCN(c2ncc(C(F)(F)F)cn2)CC1)Nc1cn[nH]c(=O)c1Br [Example 668, (S)-4-Bromo-5-((1-methoxy-3-(3-oxo-3-(4-(5-(trifluoromethyl)pyrimidin-2-yl)piperazin-1-yl)propoxy)propan-2-yl)amino)pyridazin-3(2H)-one]
25 | < 0.1 µM | C[C@@H](COCCC(=O)N1CCCN(c2ncc(C(F)(F)F)cn2)CC1)Nc1cn[nH]c(=O)c1C(F)(F)F [Example 669, (S)-5-((1-(3-Oxo-3-(4-(5-(trifluoromethyl)pyrimidin-2-yl)-1,4-diazepan-1-yl)propoxy)propan-2-yl)amino)-4-(trifluoromethyl)pyridazin-3(2H)-one]
26 | < 0.1 µM | Cc1cnc(N2CCN(C(=O)CCOC[C@H](C)Nc3cn[nH]c(=O)c3C(F)(F)F)CC2)nc1 [Example 670, (S)-5-((1-(3-(4-(5-Methylpyrimidin-2-yl)piperazin-1-yl)-3-oxopropoxy)propan-2-yl)amino)-4-(trifluoromethyl)pyridazin-3(2H)-one]
27 | < 0.1 µM | C[C@@H](COCCC(=O)N1CCN(c2ncc(F)cn2)CC1)Nc1cn[nH]c(=O)c1C(F)(F)F [Example 679, (S)-5-((1-(3-(4-(5-Fluoropyrimidin-2-yl)piperazin-1-yl)-3-oxopropoxy)propan-2-yl)amino)-4-(trifluoromethyl)pyridazin-3(2H)-one]
28 | < 0.1 µM | COCC[C@@H](COCCC(=O)N1CCN(c2ncc(C(F)(F)F)cn2)CC1)Nc1cn[nH]c(=O)c1C(F)(F)F [Example 686, (S)-5-((4-Methoxy-1-(3-oxo-3-(4-(5-(trifluoromethyl)pyrimidin-2-yl)piperazin-1-yl)propoxy)butan-2-yl)amino)-4-(trifluoromethyl)pyridazin-3(2H)-one]
29 | < 0.1 µM | Cc1cnc(N2CCN(C(=O)CCOC[C@H](C)Oc3cn[nH]c(=O)c3C(F)(F)F)CC2)nc1 [Example 687, (S)-5-((1-(3-(4-(5-Methylpyrimidin-2-yl)piperazin-1-yl)-3-oxopropoxy)propan-2-yl)oxy)-4-(trifluoromethyl)pyridazin-3(2H)-one]
